Source: paper PMC12362433, “Systematic Determination of the Impact of Structural Edits on Peptide Accumulation into Mycobacteria” (ACS Chemical Biology, 2025)
Bridge positions count the residues as written; N and C are the ends. Square brackets hold non-standard residues; d marks the D form. Peptide text beside a SMILES is read from it. * marks the point of attachment. Lys(N3) = [N-]=[N+]=NCCCC[C@H](N)C(=O)O; Azidoacetyl = [N-]=[N+]=NCC(=O)*; NMeF = CN[C@@H](Cc1ccccc1)C(=O)O; NMeT = CN[C@H](C(=O)O)[C@@H](C)O; NMeL = CN[C@@H](CC(C)C)C(=O)O; dNMeL = CN[C@H](CC(C)C)C(=O)O; NMeK = CN[C@@H](CCCCN)C(=O)O; NMeV = CN[C@H](C(=O)O)C(C)C

Experiments:
[1] = Serum stability assay in mouse serum; assay type: in vitro ADME
Experimental: Serum stability assay. Time course degradation in mouse serum was evaluated for peptides Lin0, Cyc0, Nmet0 and Nmet9. Compounds were incubated in mouse serum at a concentration of 1.0 mM to a total of 200 μL at 37 °C. At each time point (0, 15, 30, 60 min), 4 0 μL of the solution was aliquoted and diluted in a 1:1 solution o f H2O/CH3CN (101 μL) containing trichloroacetic acid (9 μL) and 100 μM of internal standard Fm o c -L-phenylalanine. This mixture was incubated in ice for 5 min to precipitate serum proteins.
The samples were then centrifuged at 21,000×g for 5 min. 140 μL of the supernatant was then transferred to a filter tube and centrifuged again at 21,000× g for 5 min to filter. 110 μL of the filtrate was then analyzed using Phenomenex Luna 5 µm C8(2) on RP-HPLC; gradient elution in H2O/CH 3CN with 0.1% TFA at 1 mL/min. Peptide identity was confirmed via peak collection and subsequent matrix-assisted laser desorption ionization time-of-flight (MALDI-TOF) mass spectroscopy (Shimadzu 8020). To eliminate variations in the overall signal intensity, area under the curve (AUC) for the peptides of interest at each time point was normalized to the AUC of the internal standard Fm o c -L-phenylalanine, the concentration of which was predetermined. These normalized AUC values were then further normalized to the “0 min” time point which was set to 100%. […]

Msm cells = conditions: 25 μM TetD labeling; microscopy and EtBr accumulation/efflux
Experimental: Ethidium bromide (EtBr) whole-cell accumulation assay. To a 96-well plate, 90 µL of
T etD -modified Msm cells were added in triplicate. Next, 5 µL of 1 mM peptide stock
solutions were added to yield a final concentration of 50 µM. The volume in each well was
made up to 100 µL using PBS. To the blank and PBS control wells, 10 µL of PBS was
added at this point. For the blank wells, 90 µL of unlabeled cells were added in triplicate.
The plates were then incubated at 37 °C for the same duration as the corresponding PAC -
MAN assay incubation duration for that library. The cells were centrifuged for 2 min at
3000× g, and the supernatant was discarded. The pellets were then washed with 100 µL
PBST twice and finally resuspended in 100 µL of PBST. 95 µL of these cells were then
transferred to corresponding wells in a 96 -well, black, flat-bottomed plate. To each well,
5 µL of 100 µM EtBr (5 µM final) was added. The fluorescent intensities were measured
by a Biotek Synergy H1 microplate reader 60 m post -treatment with EtBr, with continuous
orbital shaking. Wavelengths: ethidium bromide, excitation 530 nm/emission 590 nm.

Msm = assay type: cell-based, Mycobacterium smegmatis; conditions: against Msm; for MIC value: 48 h, three biological replicates
Experimental: Minimum inhibitory concentration (MIC) assay. Msm cells were inoculated from the glycerol stock to the according media and grown for 24 hours until 0.5- 0.6 OD. Testing peptides were dissolved in the 7H9 growth media mentioned above and made into serial dilutions from 128 µM. 200 µL of each concentration was added to a deep well 96-well plate – with each concentration added in triplicates. The cells were diluted […] to OD of around 0.05 with fresh 7H9 growth media. […] of diluted cells were added to the deep well plate each well and mixed well with the peptide solution. The plate was covered by an adhesive porous film and incubated at 37 °C with shaking at 250 rpm for 48 h. The contents from each well were then transferred to a flat-bottom 96-well plate for MIC value determination. MIC values were determined both visually and readings of OD (wells OD < 0.1) from a Biotek Synergy H1 microplate reader at 600 nm.

SMILES	MIC value (Msm) [µM]	also measured
CC(=O)N[C@@H](CCCCN=[N+]=[N-])C(=O)N[C@@H](CC(C)C)C(=O)N[C@@H](CO)C(=O)N[C@@H](CCCCN)C(=O)N[C@@H](CO)C(=O)N[C@@H](Cc1ccccc1)C(N)=O [Lin0] (Ac-[Lys(N3)]LSKSF-NH2)	–	time to full degradation in serum [1]: ≤ 1 h
CC(C)C[C@@H](C(=O)N(C)[C@@H](CCCCN)C(=O)N(C)[C@@H](CC(C)C)C(=O)N(C)[C@@H](Cc1ccccc1)C(N)=O)N(C)C(=O)[C@H](CCCCN)N(C)C(=O)CN=[N+]=[N-] [Nmet5] (Azidoacetyl-[NMeK][NMeL][NMeK][NMeL][NMeF]-NH2)	–	serum stability (in words) ([1]; mouse serum, 37 °C, over 1 h): considerably greater serum stability than peptide Nmet0
C[C@H](NC(=O)CCC(=O)N1Cc2ccccc2C#Cc2ccccc21)C(=O)N[C@H](CCC(=O)N[C@@H](CCCCN)C(=O)N[C@H](C)C(=O)O)C(N)=O [TetD]	–	cell morphology and cell envelope integrity after labeling (Msm cells): no significant changes in cell morphology or cell envelope integrity
CC(C)C[C@@H]1NC(=O)[C@@H]2CCCN2C(=O)[C@H](CC(C)C)NC(=O)[C@@H](NC(=O)[C@@H]2CCCN2C(=O)[C@@H](NC(=O)CN=[N+]=[N-])C(C)C)[C@@H](C)OC(=O)CNC(=O)[C@@H](CC(C)C)NC(=O)[C@@H]2CCCN2C(=O)[C@H](C(C)C)NC1=O [grisCyc] (Azidoacetyl-VPTLPLVP[dL]G; ester 3-C)	> 64	–
CC(C)C[C@H](NC(=O)[C@@H]1CCCN1C(=O)[C@H](CC(C)C)NC(=O)[C@@H](NC(=O)[C@@H]1CCCN1C(=O)[C@@H](NC(=O)CN=[N+]=[N-])C(C)C)[C@@H](C)O)C(=O)N[C@H](C(=O)N1CCC[C@H]1C(=O)N[C@H](CC(C)C)C(=O)NCC(N)=O)C(C)C [grisLin] (Azidoacetyl-VPTLPLVP[dL]G-NH2)	> 64	–
CC(C)C[C@@H]1NC(=O)[C@@H]2CCCN2C(=O)[C@H](CC(C)C)NC(=O)[C@@H](N(C)C(=O)[C@@H]2CCCN2C(=O)[C@H](C(C)C)N(C)C(=O)CN=[N+]=[N-])[C@@H](C)OC(=O)CNC(=O)[C@@H](CC(C)C)N(C)C(=O)[C@@H]2CCCN2C(=O)[C@H](C(C)C)N(C)C1=O [grisMeCyc] (Azidoacetyl-[NMeV]P[NMeT]LPL[NMeV]P[dNMeL]G; ester 3-C)	2	–
CC(C)C[C@H](NC(=O)[C@@H]1CCCN1C(=O)[C@H](CC(C)C)NC(=O)[C@H]([C@@H](C)O)N(C)C(=O)[C@@H]1CCCN1C(=O)[C@H](C(C)C)N(C)C(=O)CN=[N+]=[N-])C(=O)N(C)[C@H](C(=O)N1CCC[C@H]1C(=O)N(C)[C@H](CC(C)C)C(=O)NCC(N)=O)C(C)C [grisMeLin] (Azidoacetyl-[NMeV]P[NMeT]LPL[NMeV]P[dNMeL]G-NH2)	> 64	fold increase in MIC value relative to grisMeCyc (Msm; loss of macrocyclization): > 32 fold
